Experimental data taken from US10858365B2, “Triazolo-pyrimidine compounds and uses thereof” (Dizal (Jiangsu) Pharmaceutical Co., Ltd., priority 2018, dated 2020).

Tests used:
[1] = biological target: T1, hA2a (Homo sapiens (Human), UniProt P29274); experiment: Radioligand binding to hA2a membrane ([3H]-CGS21680); details: [3H]-CGS21680, 90 min at 25° C., read-out: Binding Affinity (IC50 nM) hA2a
Experimental: (§1) Binding affinity and specificities of the compounds against different subtype of human adenosine receptors (hA1, hA2A, hA2B and hA3) were characterized with cell membrane chromatography binding analysis.
(§2) The compounds at different concentrations were incubate with hA2a membrane (from PerkinElmer) and [^3H]-CGS21680 for 90 min at 25° C., meanwhile 100 μL 0.5% PEI solution was added into […]-96 GF/B filter plate for 60 min at 4° C., then […]-96 GF/B filter plate was washed twice with 50 ml wash buffer, the membrane mix was transferred into […]-96 GF/B filter plate, and the filter plate was washed 4 times before incubated at 55° C. for 10 min. At last, […] ULTIMA GOLD was added into each well, and CPM was read by TopCount.
(§3) The empty boxes in the tables below indicate data not available.

[2] = biological target: hA2b (Homo sapiens (Human), UniProt P29275); experiment: cAMP inhibition assay in hA2b/CHO cells; assay type: cell-based; details: adenosine stimulation, read-out: cAMP & FLIPR IC50 (nM) hA2b
Chain of hA2b (P29275 whole entry): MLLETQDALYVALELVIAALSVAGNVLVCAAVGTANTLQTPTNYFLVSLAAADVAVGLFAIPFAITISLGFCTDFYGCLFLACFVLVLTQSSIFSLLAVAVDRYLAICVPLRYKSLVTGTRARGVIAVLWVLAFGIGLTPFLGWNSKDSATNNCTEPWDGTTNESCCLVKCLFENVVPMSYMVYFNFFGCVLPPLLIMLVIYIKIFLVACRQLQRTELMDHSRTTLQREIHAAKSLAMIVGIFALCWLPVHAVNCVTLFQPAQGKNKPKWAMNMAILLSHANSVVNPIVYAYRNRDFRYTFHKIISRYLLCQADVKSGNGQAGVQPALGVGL
Experimental: (§4) hA2a/CHO, hA2b/CHO and mA2a/CHO (Genscript) were plated at 5×10^3 cells/well into 384-well polystyrene plates at the day of experiment. Compounds were pre-incubated with cells for 30 min at 37° C., 5% CO2. Then […] adenosine was added to the cells and incubated for 30 min at 37° C., 5% CO2. Detection reagent (CISBIO) was added and the plates were incubated for 60 min at room temperature. The signal was captured by Envision.

[3] = biological target: T2, hA1 (Homo sapiens (Human), UniProt P30542); experiment: Radioligand binding to hA1 membrane ([3H]-DPCPX); details: 50 min at 25° C., read-out: Binding Affinity (IC50 nM) hA1
T2 sequence (P30542 whole entry): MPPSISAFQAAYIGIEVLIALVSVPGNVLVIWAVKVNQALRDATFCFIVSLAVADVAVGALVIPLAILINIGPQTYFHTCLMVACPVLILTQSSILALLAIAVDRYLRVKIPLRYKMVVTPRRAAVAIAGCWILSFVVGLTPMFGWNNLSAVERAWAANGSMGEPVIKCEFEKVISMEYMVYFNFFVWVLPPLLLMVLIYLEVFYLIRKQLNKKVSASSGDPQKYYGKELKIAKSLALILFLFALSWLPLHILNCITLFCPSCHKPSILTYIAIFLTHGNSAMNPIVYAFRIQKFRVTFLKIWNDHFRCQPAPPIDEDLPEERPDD
Experimental: as §1
as §2, with “hA1” for “hA2a”, “[^3H]-8-Cyclopentyl-1,3-dipropylxanthine (DPCPX)” for “[^3H]-CGS21680”, “50” for “90”
as §3

[4] = biological target: T2, hA1; experiment: FLIPR inhibition assay in hADORA1/CHO (hA1 expressing) cells; assay type: cell-based; details: hADORA1/CHO cells, FLIPR calcium, adenosine stimulation; read-out: cAMP & FLIPR IC50 (nM) hA1
Outline: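 CHO cells expressing human A1 were plated at 1×10^4 cells/well the day before, then loaded with FLIPR Calcium 5 dye for 60 min at 37 °C, 5% CO2. Compounds were added at several concentrations for 400 s before stimulation with […] adenosine. The calcium signal was recorded by FLIPR.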

[5] = biological target: T1, hA2a; experiment: cAMP inhibition assay in hA2a/CHO cells; assay type: cell-based; details: adenosine stimulation, read-out: cAMP & FLIPR IC50 (nM) hA2a
Outline: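 CHO cells expressing human A2a, human A2b or mouse A2a, 5×10^3 cells/well, pre-incubated with compound 30 min at 37 °C, then stimulated with […] adenosine 30 min at 37 °C. cAMP read after 60 min room-temperature incubation with detection reagent.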

[6] = biological target: mA2a (Mus musculus (Mouse), UniProt Q60613); experiment: cAMP inhibition assay in mA2a/CHO cells; assay type: cell-based; details: adenosine stimulation, read-out: cAMP & FLIPR IC50 (nM) mA2a
Chain of mA2a (Q60613 whole entry): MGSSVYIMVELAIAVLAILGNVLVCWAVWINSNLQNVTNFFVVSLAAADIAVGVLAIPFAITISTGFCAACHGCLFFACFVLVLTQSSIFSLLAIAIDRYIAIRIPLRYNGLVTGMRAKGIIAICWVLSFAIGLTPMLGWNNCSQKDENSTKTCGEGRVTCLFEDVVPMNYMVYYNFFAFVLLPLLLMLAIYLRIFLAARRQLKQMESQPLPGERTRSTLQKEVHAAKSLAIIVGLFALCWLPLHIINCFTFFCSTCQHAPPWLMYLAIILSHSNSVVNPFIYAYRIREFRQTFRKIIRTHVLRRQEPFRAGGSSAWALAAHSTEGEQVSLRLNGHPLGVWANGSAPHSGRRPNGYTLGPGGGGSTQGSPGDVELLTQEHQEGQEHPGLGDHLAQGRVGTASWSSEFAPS
Experimental: as §4

[7] = biological target: hA3 (Homo sapiens (Human), UniProt P0DMS8); experiment: cAMP & FLIPR inhibition, hA3 over-expressing cell line; assay type: cell-based
Chain of hA3 (P0DMS8 whole entry): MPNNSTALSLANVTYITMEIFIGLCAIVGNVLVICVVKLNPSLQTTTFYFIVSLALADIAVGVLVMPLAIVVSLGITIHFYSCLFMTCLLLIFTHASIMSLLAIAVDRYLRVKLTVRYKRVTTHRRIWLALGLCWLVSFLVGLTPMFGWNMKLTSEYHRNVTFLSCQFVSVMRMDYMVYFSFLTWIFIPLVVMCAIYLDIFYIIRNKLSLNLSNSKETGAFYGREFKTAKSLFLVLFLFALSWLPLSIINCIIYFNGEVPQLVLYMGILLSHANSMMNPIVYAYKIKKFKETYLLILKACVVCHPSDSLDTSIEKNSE
From the text: FLIPR™ and cAMP inhibition activities of exemplary compounds in different adenosine receptor over-expressing cell lines are shown in Table 4 below.

T1 sequence (P29274 whole entry): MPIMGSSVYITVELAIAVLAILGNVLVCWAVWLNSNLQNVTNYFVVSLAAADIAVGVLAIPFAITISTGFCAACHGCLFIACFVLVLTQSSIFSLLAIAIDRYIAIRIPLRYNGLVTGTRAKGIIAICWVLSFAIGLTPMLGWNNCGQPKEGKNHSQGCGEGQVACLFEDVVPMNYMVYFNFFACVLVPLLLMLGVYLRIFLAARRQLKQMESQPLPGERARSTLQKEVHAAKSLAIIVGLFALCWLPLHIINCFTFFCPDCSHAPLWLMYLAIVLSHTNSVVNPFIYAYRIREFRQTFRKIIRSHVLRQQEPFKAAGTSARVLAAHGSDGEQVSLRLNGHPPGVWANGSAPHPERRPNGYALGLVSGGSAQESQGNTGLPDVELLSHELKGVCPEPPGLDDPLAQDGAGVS

| Structure (SMILES) | IC50 [1] [nM] | IC50 [2] [nM] | IC50 [3] [nM] | IC50 [4] [nM] | IC50 [5] [nM] | IC50 [6] [nM] | IC50 [7] [nM] |
| --- | --- | --- | --- | --- | --- | --- | --- |
| Cc1c(-c2c(-c3ccc(F)cc3)nc(N)n3nc(Cc4ncccc4F)nc23)ccc(=O)n1C [Example 66, 5-(5-amino-7-(4-fluorophenyl)-2-((3-fluoropyridin-2-yl)methyl)-[1,2,4]triazolo[1,5-c]pyrimidin-8-yl)-1,6-dimethylpyridin-2(1H)-one] | 7.2 | 109 | 46 | 69 | 31 | 346 | – |
| Nc1cccc(Cc2nc3c(-c4ccc5nccn5c4)c(-c4ccc(F)cc4)nc(N)n3n2)n1 [Example 37, 2-((6-aminopyridin-2-yl)methyl)-7-(4-fluorophenyl)-8-(imidazo[1,2-a]pyridin-6-yl)-[1,2,4]triazolo[1,5-c]pyrimidin-5-amine] | 6.3 | 12 | 4 | 12 | 1.8 | 7.3 | – |
| Nc1nc(-c2ccc(F)cc2)c(-c2ccnc(Cl)c2)c2nc(Cc3ncccc3F)nn12 [Example 3, 8-(2-chloropyridin-4-yl)-7-(4-fluorophenyl)-2-((3-fluoropyridin-2-yl)methyl)-[1,2,4]triazolo[1,5-c]pyrmidin-5-amine] | – | 65 | – | 42 | 56 | 70 | > 10000 |
| Cc1cc(-c2c(-c3ccc(F)cc3)nc(N)n3nc(Cc4nccs4)nc23)ccn1 [Example 11, 7-(4-fluorophenyl)-8-(2-methylpyridin-4-yl)-2-(thiazol-2-ylmethyl)-[1,2,4]triazolo[1,5-c]pyrimidin-5-amine] | – | 219 | – | 9.7 | 34 | 78 | > 10000 |
| Cc1cc(-c2c(-c3ccc(F)cc3)nc(N)n3nc(Cc4ncccc4F)nc23)ccn1 [Example 2, 7-(4-fluorophenyl)-2-((3-fluoropyridin-2-yl)methyl)-8-(2-methylpyridin-4-yl)-[l,2,4]triazolo[l,5-c]pyrmidin-5-amine] | – | 73 | – | 23 | 59 | 59 | > 10000 |
| Nc1nc(-c2ncco2)c(-c2ccnc(OC(F)F)c2)c2nc(Cc3c(F)cccc3F)nn12 [Example 85, 2-(2,6-difluorobenzyl)-8-(2-(difluoromethoxy)pyridin-4-yl)-7-(oxazol-2-yl)-[1,2,4]triazolo[1,5-c] pyrimidin-5-amine] | 5.5 | 48 | 5.4 | 27 | 15 | 11 | – |
| Cn1cc(-c2c(-c3ncco3)nc(N)n3nc(Cc4c(F)cccc4F)nc23)ccc1=O [Example 22, 5-(5-amino-2-(2,6-difluorobenzyl)-7-(oxazol-2-yl)-[1,2,4]triazolo[1,5-c]pyrimidin-8-yl)-1-methylpyridin-2(1H)-one] | 12 | 168 | 6.8 | 25 | 8.2 | 12 | – |
| Nc1nc(-c2ncco2)c(-c2ccnc(OC(F)F)c2)c2nc(Cc3ncccc3F)nn12 [Example 86, 8-(2-(difluoromethoxy)pyridin-4-yl)-2-((3-fluoropyridin-2-yl)methyl)-7-(oxazol-2-yl)-[1,2,4]triaz olo[1,5-c]pyrimidin-5-amine] | 8.3 | 83 | 21 | 59 | 71 | 48 | – |
| Cn1cc(-c2c(-n3nccn3)nc(N)n3nc(Cc4c(F)cccc4F)nc23)ccc1=O [Example 25, 5-[5-amino-2-[(2,6-difluorophenyl)methyl]-7-(2H-1,2,3-triazol-2-yl)-[1,2,4]triazolo[1,5-c]pyrimidin-8-yl]-1-methyl-1,2-dihydropyridin-2-one] | 1.4 | 582 | 7.9 | 21 | 20 | 30 | – |
| COc1ccc(-c2nc(N)n3nc(Cc4ncccc4F)nc3c2-c2ccc(=O)n(C)c2)cc1 [Example 61, 5-(5-amino-2-((3-fluoropyridin-2-yl)methyl)-7-(4-methoxyphenyl)-[1,2,4]triazolo[1,5-c]pyrimidin-8-yl)-1-methylpyridin-2(1H)-one] | 4.2 | 122 | 1.7 | 25 | 28 | 42 | – |
| Cn1cc(-c2c(-c3cccc(Cl)c3)nc(N)n3nc(Cc4ncccc4F)nc23)ccc1=O [Example 70, 5-(5-amino-7-(3-chlorophenyl)-2-((3-fluoropyridin-2-yl)methyl)-[1,2,4]triazolo[1,5-c]pyrimidin-8-yl)-l-methylpyridin-2(lH)-one] | 4.1 | 68 | 0.8 | 14 | 5.5 | 13 | – |
| Nc1nc(-c2ccc(F)cc2)c(-c2ccc3nccn3c2)c2nc(Cc3ncccc3F)nn12 [Example 32, 7-(4-fluorophenyl)-2-((3-fluoropyridin-2-yl)methyl)-8-(imidazo[1,2-a]pyridin-6-yl)-[1,2,4]triazolo [1,5-c]pyrimidin-5-amine] | 5.5 | 19 | 3.4 | 28 | 0.9 | 5.4 | – |
| Cn1cc(-c2c(-c3ccc(C(F)(F)F)cc3)nc(N)n3nc(Cc4ncccc4F)nc23)ccc1=O [Example 62, 5-(5-amino-2-((3-fluoropyridin-2-yl)methyl)-7-(4-(trifluoromethyl)phenyl)-[l,2,4]triazolo[l,5-c]pyrimidin-8-yl)-l-methylpyridin-2(1H)-one] | 5.2 | 602 | 5.1 | 27 | 184 | 318 | – |
| COc1cccc(-c2nc(N)n3nc(Cc4ncccc4F)nc3c2-c2ccc(=O)n(C)c2)c1 [Example 77, 5-(5-amino-2-((3-fluoropyridin-2-yl)methyl)-7-(3-methoxyphenyl)-[1,2,4]triazolo[1,5-c]pyrimidin-8-yl)-1-methylpyridin-2(1H)-one] | 3.6 | 51 | 1.4 | 13 | 6.7 | 17 | – |
| Nc1nc(-n2nccn2)c(-c2ccc3nccn3c2)c2nc(Cc3ncccc3F)nn12 [Example 94, 2-[(3-fluoropyridin-2-yl)methyl]-8-[imidazo[1,2-a]pyridin-6-yl]-7-(2H-1,2,3-triazol-2-yl)-[1,2,4]triazolo[1,5-c]pyrimidin-5-amine] | 3.5 | 94 | 52 | 41 | 7.7 | 20 | – |
| Cn1cc(-c2c(-c3ccc(C(F)F)cc3)nc(N)n3nc(Cc4ncccc4F)nc23)ccc1=O [Example 41, 5-(5-amino-7-(4-(difluoromethyl)phenyl)-2-((3-fluoropyridin-2-yl)methyl)-[1,2,4]triazolo[1,5-c]pyrimidin-8-yl)-1-methylpyridin-2(1H)-one] | 3.4 | 259 | 2.2 | 17 | 70 | 189 | – |
| Nc1nc(-c2ncco2)c(-c2ccc3nccn3c2)c2nc(Cc3ncccc3F)nn12 [Example 31, 2-((3-fluoropyridin-2-yl)methyl)-8-(imidazo[1,2-a]pyridin-6-yl)-7-(oxazol-2-yl)-[1,2,4]triazolo[1,5-c]pyrimidin-5-amine] | 3 | 80 | 137 | 188 | 14 | 51 | – |
